Data set [1] addresses α1-adrenoceptors (α1-ARs), rat cerebral cortex. To be noted: cited from earlier work.
For data set [2], the target named is T1, human adrenergic receptor α1A (Homo sapiens, UniProt P35348).
T1 sequence (P35348 1-466): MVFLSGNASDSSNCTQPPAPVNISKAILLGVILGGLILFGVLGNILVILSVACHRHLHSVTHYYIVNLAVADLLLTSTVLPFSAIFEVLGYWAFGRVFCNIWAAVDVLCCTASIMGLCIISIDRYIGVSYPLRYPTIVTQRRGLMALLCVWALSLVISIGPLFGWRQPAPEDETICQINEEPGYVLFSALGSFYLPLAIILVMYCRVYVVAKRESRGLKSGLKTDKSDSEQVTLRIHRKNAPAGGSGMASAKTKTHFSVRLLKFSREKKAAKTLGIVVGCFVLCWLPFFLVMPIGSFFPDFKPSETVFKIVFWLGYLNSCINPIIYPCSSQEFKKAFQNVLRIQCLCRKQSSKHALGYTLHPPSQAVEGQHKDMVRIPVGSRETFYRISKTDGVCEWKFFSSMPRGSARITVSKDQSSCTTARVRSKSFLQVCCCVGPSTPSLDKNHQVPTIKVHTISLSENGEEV
The data set is described as follows: Intrinsic activity, aequorin luminescence functional assay at α1A-AR. To be noted: for α1A-AR Profile: agonist/antagonist profile; for IC50: cells expressing aequorin and human α1A, against phenylephrine, means of three independent experiments in duplicates; for Selectivity Ratio α1B/α1A: selectivity for α1A-AR (IC50(α1B-AR)/IC50(α1A-AR)). It counts as cell-based.

In data set [3] the target is α1-adrenoceptors (α1-ARs), rat cerebral cortex. Nature of the data set: Radioligand binding assay with [3H]-prazosin, affinity for α1-ARs. The settings on record: three independent experiments in duplicates, read-out: α1-adrenoceptor affinity Ki.
Data set [4] has as its system arterial blood pressure of normotensive Wistar rats. The data set is described as follows: Influence on blood pressure in normotensive anesthetized rats after i.v. administration. It counts as in vivo, rat. The settings on record: for Diastolic blood pressure / Systolic blood pressure: mean, n = 6. The gist of the method: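 Normotensive rats were given thiopental (75 mg/kg) intraperitoneally as anesthesia. A heparinized saline-filled polyethylene tube was placed in the left carotid artery, and blood pressure was recorded with a PowerLab Apparatus. Compounds dissolved in ethyl alcohol 5% − kolliphor 5% − water 90% were injected intravenously at 1 mL/kg after 20 min of stabilization. Pressures were compared by two-way ANOVA with Sidak's post-hoc test.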

For data set [5], the target named is T2, human adrenergic receptor α1B (Homo sapiens, UniProt P35368).
T2 sequence (P35368 1-520): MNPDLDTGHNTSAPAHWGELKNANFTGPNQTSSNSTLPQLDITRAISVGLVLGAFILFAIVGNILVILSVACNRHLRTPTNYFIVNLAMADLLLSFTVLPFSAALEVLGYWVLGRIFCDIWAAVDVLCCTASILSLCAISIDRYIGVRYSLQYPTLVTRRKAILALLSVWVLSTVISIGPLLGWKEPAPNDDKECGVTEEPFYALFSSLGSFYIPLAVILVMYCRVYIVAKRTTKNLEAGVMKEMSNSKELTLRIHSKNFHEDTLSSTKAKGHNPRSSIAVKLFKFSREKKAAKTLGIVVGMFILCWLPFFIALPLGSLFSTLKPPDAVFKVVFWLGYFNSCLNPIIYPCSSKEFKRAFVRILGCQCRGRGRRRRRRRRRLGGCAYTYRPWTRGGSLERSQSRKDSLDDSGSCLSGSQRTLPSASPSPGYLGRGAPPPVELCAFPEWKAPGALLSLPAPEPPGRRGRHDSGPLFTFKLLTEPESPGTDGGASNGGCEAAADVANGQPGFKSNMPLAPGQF
Nature of the data set: Intrinsic activity, aequorin luminescence functional assay at α1B-AR. The class given is cell-based. To be noted: for α1B-AR Profile: agonist/antagonist profile; for IC50: cells expressing aequorin and human α1B, against phenylephrine, means of three independent experiments in duplicates; for Selectivity Ratio α1A/α1B: selectivity for α1B-AR (IC50(α1A-AR)/IC50(α1B-AR)).

Where [6] appears, read: 2.0 mg/kg i.v., 0 min (initial, before administration).
The mark [7] stands for this setting: i.v., normotensive anesthetized rats.
The mark [8] stands for this setting: 0.0625 mg/kg i.v., 0 min (initial, before administration).

By Ki is commonly meant a dissociation constant, usually derived from enzyme kinetics or from competition with a known ligand. In general, melting point refers to the temperature of the solid-liquid transition. By IC50 is commonly meant the concentration that inhibits the measured activity by half. A high value points to weaker potency in that assay.

Molecules are shown by their SMILES. Where “and” joins values, the source holds several entries; their conditions need not be identical. Equal entries are not always repeated. Structures can show the parent of a compound that is named as a salt. Where two headings read alike, the source gives them in different places. A value given as a limit tells only on which side of the number the result lay.

Turning to `COc1ccccc1N1CCN(CCCCCN2C(=O)N(Cc3ccccc3)C(=O)C2(C)C)CC1` [PI], in data set [1] (lead structure, Figure 2, read-out: α1R Ki), the Ki was 42.6 nM.

`CC1(C)C(=O)N(Cc2ccc(Cl)cc2Cl)C(=O)N1CCCN1CCN(c2cccc(Cl)c2Cl)CC1.Cl` [Compound 2, 3-(2,4-dichlorobenzyl)-1-(3-(4-(2,3-dichlorophenyl)piperazin-1-yl)propyl)-5,5-dimethylimidazolidine-2,4-dione hydrochloride] returned a melting point of 185 to 187 °C. Further, in data set [2], the “α1A-AR Profile” value is “Antagonist”, the IC50 was found to be 1730 nM and the “Selectivity Ratio α1B/α1A” value is on record as 0.66. In data set [3], the Ki was 535 nM. In data set [4] (setting [6]), this compound had a Diastolic blood pressure of 100.7 and a Systolic blood pressure of 129.3. In data set [4] (2.0 mg/kg i.v., 5 min), this compound showed a Diastolic blood pressure of 98.5 and a Systolic blood pressure of 126.7. In data set [4] (2.0 mg/kg i.v., 10 min), this compound yielded a Diastolic blood pressure of 96.8 and a Systolic blood pressure of 124.2. Also, in data set [4] (2.0 mg/kg i.v., 20 min), the Diastolic blood pressure is given as 92.8 and the Systolic blood pressure is on record as 121.7. In data set [4] (2.0 mg/kg i.v., 30 min), this compound displayed a Diastolic blood pressure of 90.3 and a Systolic blood pressure of 121.2. In data set [4] (2.0 mg/kg i.v., 40 min), the Diastolic blood pressure is 89.3 and the Systolic blood pressure is given as 120.2. Further, in data set [4] (2.0 mg/kg i.v., 50 min), the Diastolic blood pressure stood at 88.0 and the Systolic blood pressure turned out to be 120.3. Also, in data set [4] (2.0 mg/kg i.v., 60 min), the Diastolic blood pressure is 88.0 and the Systolic blood pressure is reported as 119.3. For the same compound, in data set [5], the “α1B-AR Profile” value was “Antagonist”, the IC50 was determined as 1150 nM and the “Selectivity Ratio α1A/α1B” value was 1.51.

In the case of `COc1cc2nc(N3CCN(C(=O)c4ccco4)CC3)nc(N)c2cc1OC` [Prazosin, prazosin hydrochloride], the Ki in data set [1] (published previously, read-out: α1-adrenoceptor affinity Ki) is 0.24 nM.

`CC1(C)C(=O)N(Cc2ccc(Cl)cc2Cl)C(=O)N1CC(O)CN1CCN(c2ccccc2)CC1.Cl` (stereo not drawn) [Compound 6, 3-(2,4-dichlorobenzyl)-1-(2-hydroxy-3-(4-phenylpiperazin-1-yl)propyl)-5,5-dimethylimidazolidine-2,4-dione hydrochloride] showed a melting point of 196 to 198 °C. In data set [2], the “α1A-AR Profile” value is “Antagonist”, inhibition was half-maximal at 5910 nM (IC50) and the “Selectivity Ratio α1B/α1A” value stood at 0.15. The inhibition constant Ki in data set [3] was found to be 53 nM. In data set [4] (setting [6]), this compound gave a Diastolic blood pressure of 98.2 and a Systolic blood pressure of 134.2. Also, in data set [4] (2.0 mg/kg i.v., 5 min), the Diastolic blood pressure came to 87.2 and the Systolic blood pressure is 124.2. In data set [4] (2.0 mg/kg i.v., 10 min), this compound yielded a Diastolic blood pressure of 90.3 and a Systolic blood pressure of 125.2. In data set [4] (2.0 mg/kg i.v., 20 min), this compound showed a Diastolic blood pressure of 89.7 and a Systolic blood pressure of 126.3. For the same compound, in data set [4] (2.0 mg/kg i.v., 30 min), the Diastolic blood pressure worked out at 89.0 and the Systolic blood pressure is given as 125.0. In data set [4] (2.0 mg/kg i.v., 40 min), this compound had a Diastolic blood pressure of 89.0 and a Systolic blood pressure of 126.7. Further, in data set [4] (2.0 mg/kg i.v., 50 min), the Diastolic blood pressure was 89.2 and the Systolic blood pressure turned out to be 125.5. Also, in data set [4] (2.0 mg/kg i.v., 60 min), the Diastolic blood pressure turned out to be 88.7 and the Systolic blood pressure is 125.8. In data set [5], the “α1B-AR Profile” value is recorded as “Antagonist”; the midpoint of inhibition, the IC50, lay at 905 nM; the “Selectivity Ratio α1A/α1B” value is 6.53.

For the compound `COc1ccccc1N1CCN(CCCN2C(=O)N(Cc3ccc(Cl)cc3Cl)C(=O)C2(C)C)CC1.Cl` [Compound 1, 3-(2,4-dichlorobenzyl)-1-(3-(4-(2-methoxyphenyl)piperazin-1-yl)propyl)-5,5-dimethylimidazolidine-2,4-dione hydrochloride], the melting point was in the range of 201 to 203 °C. Also, in data set [2], the “α1A-AR Profile” value is on record as “Antagonist”; the IC50 is < 100 nM and 90.6 nM; the “Selectivity Ratio α1B/α1A” value is 0.12. For the same compound, the Ki in data set [3] was found to be 31 nM. In data set [4] (setting [6]), this compound registered a Diastolic blood pressure of 101.0 and a Systolic blood pressure of 133.3. In data set [4] (2.0 mg/kg i.v., 5 min), the Diastolic blood pressure stood at 88.3 and the Systolic blood pressure is recorded as 120.3. Moreover, in data set [4] (2.0 mg/kg i.v., 10 min), the Diastolic blood pressure was determined as 82.3 and the Systolic blood pressure was 113.0. In data set [4] (2.0 mg/kg i.v., 20 min), this compound had a Diastolic blood pressure of 82.2 and a Systolic blood pressure of 112.2. In data set [4] (2.0 mg/kg i.v., 30 min), this compound gave a Diastolic blood pressure of 81.3 and a Systolic blood pressure of 114.2. In data set [4] (2.0 mg/kg i.v., 40 min), this compound had a Diastolic blood pressure of 80.8 and a Systolic blood pressure of 114.7. Moreover, in data set [4] (2.0 mg/kg i.v., 50 min), the Diastolic blood pressure was determined as 81.7 and the Systolic blood pressure amounted to 116.0. In data set [4] (2.0 mg/kg i.v., 60 min), this compound yielded a Diastolic blood pressure of 83.3 and a Systolic blood pressure of 117.5. Further, the “effect on systolic and diastolic blood pressure (in words)” value in data set [4] (setting [7]) is “statistically significant reduction”. Moreover, in data set [5], the “α1B-AR Profile” value is reported as “Antagonist”; the IC50 is < 100 nM and < 11 nM and 10.7 nM; the “Selectivity Ratio α1A/α1B” value amounted to 8.46.

`COc1ccccc1N1CCN(CCCCCCN2C(=O)N(Cc3ccc(Cl)cc3Cl)C(=O)C2(C)C)CC1.Cl` [Compound 5, 3-(2,4-dichlorobenzyl)-1-(6-(4-(2-methoxyphenyl)piperazin-1-yl)hexyl)-5,5-dimethylimidazolidine-2,4-dione hydrochloride] had a melting point of 205 to 207 °C. Further, in data set [2], the “α1A-AR Profile” value was “Antagonist”; the IC50 is < 100 nM and 0.02 nM; the “Selectivity Ratio α1B/α1A” value is given as 0.10. Besides, the Ki in data set [3] came to 12.7 nM. Further, in data set [4] (setting [8]), the Diastolic blood pressure was 92.0 and the Systolic blood pressure is recorded as 128.8. In data set [4] (0.0625 mg/kg i.v., 5 min), the Diastolic blood pressure is 87.7 and the Systolic blood pressure came out at 121.0. In data set [4] (0.0625 mg/kg i.v., 10 min), this compound yielded a Diastolic blood pressure of 84.2 and a Systolic blood pressure of 116.8. In data set [4] (0.0625 mg/kg i.v., 20 min), the Diastolic blood pressure was determined as 81.7 and the Systolic blood pressure came out at 114.2. In data set [4] (0.0625 mg/kg i.v., 30 min), this compound yielded a Diastolic blood pressure of 82.7 and a Systolic blood pressure of 113.3. In data set [4] (0.0625 mg/kg i.v., 40 min), the Diastolic blood pressure is 81.7 and the Systolic blood pressure is listed as 114.7. In data set [4] (0.0625 mg/kg i.v., 50 min), this compound came in with a Diastolic blood pressure of 81.8 and a Systolic blood pressure of 116.8. Also, in data set [4] (0.0625 mg/kg i.v., 60 min), the Diastolic blood pressure stood at 83.3 and the Systolic blood pressure stood at 116.3. Moreover, in data set [4] (0.0625 vs. 1.0 mg/kg), the “hypotensive dose lower than that of urapidil” value stood at 16 fold. For the same compound, in data set [4] (setting [7]), the “effect on systolic and diastolic blood pressure (in words)” value was “statistically significant reduction”; the “lowest hypotensive (effective) dose” value is reported as 0.0625 mg/kg. In data set [5], the “α1B-AR Profile” value was “Antagonist”; the IC50 was < 100 nM and < 11 nM and 0.002 nM; the “Selectivity Ratio α1A/α1B” value is 10.00.

(Values after article PMC10706087, “The Subtype Selectivity in Search of Potent Hypotensive Agents among 5,5-Dimethylhydantoin Derived α1-Adrenoceptors Antagonists” (International Journal of Molecular Sciences, 2023).)
